Test results from patent US20240382506A1, “Means and Methods to Regulate Gut Dysbiosis” (VIB VZW, priority 2021, published 2024).

What was measured:
Salmonella [1] = type: cell-based, Salmonella enterica serovar Typhimurium
Procedure: Full length colons (from cecum to rectum) were excised from the indicated genotype of mice and cut open longitudinally to flay the colon open. Opened colons were vortexed 2-3 times in sterile 1× PBS to remove fecal content. Colons were then cut horizontally into 5-7 mm long pieces and incubated in DMEM +10% FBS and an antibiotic cocktail containing Ampicillin (100 μg/ml), Chloramphenicol (20 μg/ml), Kanamycin (50 μg/ml), and Streptomycin (100 μg/ml) for 2 hours at 37° C. with 5% CO2. Colonic pieces were then washed 3 times in sterile 1× PBS to remove any traces of the antibiotic cocktail. Individual colonic pieces were then incubated in 1.5 ml Eppendorf tubes containing 500 μl of DMEM+10% FBS+/−2 μM Stauro for 8 hours or +/−20 μg/ml Doxorubicin for 6 hours. For caspase inhibition, 30 μM QVD was added to the 2-hour antibiotic treatment step and was maintained throughout death induction. After death induction, colonic explants were spun at max speed for 5 minutes using a tabletop centrifuge and supernatant was collected. Unfiltered supernatant was used immediately or frozen −20° C. for subsequent use. […] All subsequent experiments (cell death, bacterial growth) utilized explants extracted from a minimum of 3 mice.
(§1) CFU/ml values: 500 μl of supernatant or media controls were inoculated with 1×10^3 CFU of the indicated strain. Cultures were grown at 37° C. with 200 rpm agitation (aerobic) and growth was assessed at the indicated time by serially diluting with 1× PBS and plating onto LB agar (in vitro supernatants) or MacConkey agar (ex vivo primary colonocyte supernatants) to obtain CFU/ml values.

Salmonella [2] = test: Salmonella growth in CT26 cell supernatants; type: cell-based, Salmonella enterica serovar Typhimurium
Procedure: (§2) All mammalian cells were cultured at 5×10^5 cells per ml. Cells were washed with 1× PBS before induction of cell death in the indicated medium. Jurkat cells were cultured in suspension at 5×10^5 cells/ml. After induction of cell death, supernatant was collected and spun at 330 rcf for 5 minutes to remove cellular debris. Unless stated otherwise, the resulting supernatant was filtered using a 0.2 μm syringe filter and either used immediately or frozen at −20° C. for later use. Cells were stained with Annexin V (AV) conjugated to APC or Pac Blue and either Sytox blue, Yoyo-1, or 7AAD (DNA binding dyes) for 15 minutes at room temperature in Annexin V binding buffer (BD). Flow cytometry was performed using the Attune NxT (Invitrogen), the FACS Calibur (BD), the LSR Fortessa (BD), or the LSRII (BD). Data were analyzed using FlowJo v.10 software. All independent experiment values shown are the average values of technical duplicates. ‘% Annexin V^+’ cells include Annexin V^+DNA dye^− and Annexin V^+DNA dye^+ cell populations.
FADD-dependent apoptosis: CT26:FADD clones were incubated with 1 μg/ml doxycycline for 16 hours to induce expression of the construct. Doxycycline was washed away before addition of 10 nM B/B Homodimerizer for 5 hours to induce death. For Caspase inhibition studies, cells were incubated with 30 μM QVD for 1 hour prior to B/B administration and QVD was maintained in the media. […]
OD600 measurements: 4 ml of supernatant or media controls were inoculated with 1-2×10^7 CFU/ml of the indicated bacterial species. Cultures were grown at 37° C. with 200 rpm agitation (aerobic) and bacterial growth was quantified by OD600 measurements using the Ultrospec 10 (VWR) at the indicated time points. […]
as §1

Salmonella [3] = test: Salmonella gene expression (qPCR) in mammalian cell supernatants; type: cell-based, Salmonella enterica serovar Typhimurium; settings: apoptotic supernatants from CT26 and HCT116 cells
Procedure: For all gene expression studies, bacterial cultures were grown to mid logarithmic growth phase (OD600=0.4−0.6), spun down at max speed, and then resuspended in TRIzol™ reagent (ThermoFisher) for immediate extraction or frozen at −80° C. Bacterial RNA was extracted and DNA removed as described using the RiboPure RNA Purification Kit (Thermo Fisher). For RNAseq experiments, ribosomal RNA was removed using Ribo-zero kits (Illumina). For all RNAseq data, sample groups were analyzed in quadruplicates and reads were mapped to the Salmonella Typhimurium SL1344 reference genome (ASM21085v2, EnsEMBL 39).
qPCR: cDNA synthesis was performed using the SensiFast cDNA synthesis kit (GC Biotech). qPCR primers were designed using NCBI Primer Blast. The ΔΔCT values for each independent biological replicate were calculated twice, first using the Salmonella housekeeping gene gmk^55 and then the housekeeping gene strB^56 and the two ΔΔCT values were averaged. Relative fold expression was calculated such that the average of the indicated controls was equal to 1. The endogenous controls for HS E. coli samples were gmk and rpoA^57. All independent experiment values shown are the average values of technical duplicates.

CT26 cells = test: Pyruvate concentration in CT26 supernatants; type: cell-based, murine; settings: CT26 cells triggered with staurosporine
Procedure: Shikonin: CT26 cells were pretreated with 5 μM Shikonin (or DMSO vehicle control) for 1 hour. Cells were then washed once with PBS before replacing with fresh media containing the indicated trigger of cell death +/−5 μM Shikonin.
Metabolite detection: Pyruvate, formate, or fructose 1,6-bisphosphate concentrations were determined using the appropriate detection kit per the manufacturer's instructions. For these experiments, mammalian cells were cultured in DMEM without phenol red supplemented with 10% FBS.

CT26:FADD cells = test: CT26:FADD cell death (flow cytometry); type: cell-based, murine
Procedure: as §2
FADD-dependent apoptosis: CT26:FADD clones were incubated with 1 μg/ml doxycycline for 16 hours to induce expression of the construct. Doxycycline was washed away before addition of 10 nM B/B Homodimerizer for 5 hours to induce death. […]

[4] = target: membrane pannexin-1 channels (Homo sapiens, UniProt Q96RD7); settings: described in literature; cited from earlier work
C57BL/6 colonic explants = test: Caspase-3 activation in colonic explants (colorimetric assay); type: cell-based, mouse; settings: 20 μg/ml Doxo, 6 hours ex vivo
Procedure: Full length colons (from cecum to rectum) were excised from the indicated genotype of mice and cut open longitudinally to flay the colon open. Opened colons were vortexed 2-3 times in sterile 1× PBS to remove fecal content. Colons were then cut horizontally into 5-7 mm long pieces and incubated in DMEM +10% FBS and an antibiotic cocktail containing Ampicillin (100 μg/ml), Chloramphenicol (20 μg/ml), Kanamycin (50 μg/ml), and Streptomycin (100 μg/ml) for 2 hours at 37° C. with 5% CO2. Colonic pieces were then washed 3 times in sterile 1× PBS to remove any traces of the antibiotic cocktail. Individual colonic pieces were then incubated in 1.5 ml Eppendorf tubes containing 500 μl of DMEM+10% FBS+/−2 μM Stauro for 8 hours or +/−20 μg/ml Doxorubicin for 6 hours. For caspase inhibition, 30 μM QVD was added to the 2-hour antibiotic treatment step and was maintained throughout death induction. […]
Caspase-3 activation: Following removal of the supernatant, explant pieces were assessed for caspase-3 activity via the Caspase-3 Colorimetric Activity Assay Kit, DEVD (Sigma) according to the manufacturer's instructions. Colorimetric values were obtained at 405 nm using the iMark™ microplate reader (BioRad) and arbitrary units were calculated from a standard curve using the provided pNA standard.

Enterobacteriaceae = test: Bacterial growth in media with or without Doxo; type: cell-based, Salmonella and E. coli (strain HS); settings: 9 hours aerobic growth in media with or without Doxo
Procedure: as §1

[5] = Doxorubicin-induced gastrointestinal toxicity in mice; type: in vivo
Procedure: (§3) Doxorubicin treatment. Doxorubicin was given as a single intraperitoneal (ip) injection at 15 mg/kg of mouse body weight while vehicle control (water) was given at similar volumes (approximately 300 μl volumes of water or 1 mg/ml Doxorubicin solution). The next day, mice were infected with 1×10^9 CFU of Salmonella (either single strain of competitive infections, as described above) or 1×10^9 CFU of E. coli. Tissues were harvested at day 1 post-infection and weight loss, total Salmonella burden, and competitive indices were calculated as above. Total Enterobacteriaceae burden, including E. coli, was assessed by plating tissue lysates on MacConkey agar without antibiotics. Uninfected controls were given 1× PBS via oral gavage instead of bacteria, and Endogenous Enterobacteriaceae burden was assessed by plating tissue lysates on MacConkey agar without antibiotics.

Salmonella [6] = test: Salmonella infection after doxorubicin treatment in mice; type: in vivo, Salmonella enterica serovar Typhimurium; settings: day 1 post-infection
Procedure: Salmonella-induced colitis. Littermate, sex, and age-matched mice were infected using the Salmonella model of colitis^34. Specific pathogen free (SPF) mice were given a single dose of 20 mg streptomycin via oral gavage (100 μl of 200 mg/ml streptomycin dissolved in water) one day prior to infection. Mice were infected with 1×10^7 CFU per mouse resuspended in 1× PBS via oral gavage. For competitive infections, polar deletions containing the chromosomally inserted kanamycin resistance gene were used^56. Mice were infected with 1×10^7 CFU per strain per mouse, for a 2×10^7 CFU per mouse total inoculum in 100 μl. […] The input ratio of each strain was calculated by plating the infective dose on agar plates containing streptomycin (total inoculum) and agar plates containing streptomycin plus kanamycin (mutant strain). WT Salmonella was thus calculated as (total inoculum)−(mutant inoculum) and input ratio was calculated as (WT Salmonella)/(mutant Salmonella inoculum) with a desired input equal to 1. Mouse body weight was measured daily and ‘% body weight’ was calculated as (daily weight)/(day 0 starting weight). […] CFU per gram of tissue were calculated by plating serial dilutions of tissue homogenates on MacConkey agar containing streptomycin and MacConkey agar containing streptomycin and kanamycin. […]

E. coli = E. coli infection after doxorubicin treatment in mice; type: in vivo; settings: C57BL/6 mice; data not shown
Procedure: as §3

[7] = system: endogenous Enterobacteriaceae; test: Endogenous Enterobacteriaceae burden in uninfected doxorubicin-treated mice; type: in vivo; settings: uninfected C57BL/6 mice, 2 days post-treatment
Procedure: as §3

[8] = single ip 15 mg/kg, followed by oral infection
[9] = uninfected mice, 2 days post-treatment

membrane pannexin-1 channels, sequence (Q96RD7 whole entry): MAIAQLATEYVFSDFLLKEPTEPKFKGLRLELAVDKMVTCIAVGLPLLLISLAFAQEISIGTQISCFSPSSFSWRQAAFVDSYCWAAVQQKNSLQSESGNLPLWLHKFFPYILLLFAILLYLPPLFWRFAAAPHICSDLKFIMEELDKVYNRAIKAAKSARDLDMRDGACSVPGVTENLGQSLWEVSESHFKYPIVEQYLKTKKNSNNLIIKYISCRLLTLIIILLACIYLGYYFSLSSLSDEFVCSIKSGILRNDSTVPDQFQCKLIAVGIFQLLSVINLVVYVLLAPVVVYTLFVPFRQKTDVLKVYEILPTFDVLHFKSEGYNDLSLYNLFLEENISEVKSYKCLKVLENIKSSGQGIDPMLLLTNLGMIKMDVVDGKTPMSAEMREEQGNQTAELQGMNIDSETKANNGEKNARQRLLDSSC

**Q.** For `CN[C@@H]1C[C@H]2O[C@@](C)([C@@H]1OC)n1c3ccccc3c3c4c(c5c6ccccc6n2c5c31)C(=O)NC4` [staurosporine, Staurosporine], which “Salmonella growth in apoptotic supernatants compared to live (vehicle-treated) colonocyte supernatants” value (Salmonella [1]; C57BL/6 colonic explants, 2 μM Stauro 8 hours ex vivo, CFU after 9 hours aerobic growth) is on record?
**A.** ~10 fold

**Q.** What about the “Salmonella growth in supernatants of apoptotic CT26 cells compared to control treatments” value (Salmonella [2]; 1 μM staurosporine 24 hours, 9 hours aerobic growth) of the same molecule?
**A.** strongly induced Salmonella growth

**Q.** What about the “Salmonella cadB expression” value (Salmonella [3]) of the same molecule?
**A.** significantly increased the expression

**Q.** What about the “Salmonella pflB expression” value (Salmonella [3]) of the same molecule?
**A.** significantly increased the expression

**Q.** And the “pyruvate released compared to live cell supernatants or fresh media controls” value (CT26 cells)?
**A.** significantly higher levels of pyruvate

**Q.** For `C=CCc1cccc(/C=N/NC(=O)CN2CCN(Cc3ccccc3)CC2)c1O` [Pac-1], which “bacterial growth in supernatants from treated CT26 cells” value (Salmonella [2]; 50 μM Pac-1 24 hours, OD600) is on record?
**A.** enhanced bacterial growth

**Q.** With `CC(C)[C@H](NC(=O)c1ccc2ccccc2n1)C(=O)N[C@@H](CC(=O)O)C(=O)COc1c(F)cccc1F` [QVD] as the molecule, how does the “Salmonella growth in dying colonocyte supernatant with caspase inhibition” value (Salmonella [1]; colonic explants treated with QVD and Stauro together, 30 μM QVD) read?
**A.** restricted Salmonella growth to live supernatant control levels

**Q.** What about the cell death (CT26:FADD cells; 30 μM QVD, 5 hours post-death induction with B/B dimerizer) of the same molecule?
**A.** reduced cell death

**Q.** What about the apoptotic caspase activation (CT26:FADD cells; QVD, data not shown) of the same molecule?
**A.** reduced

**Q.** What about the “Salmonella growth in CT26:FADD supernatants with caspase inhibition” value (Salmonella [2]; CT26:FADD cells treated with QVD, 8 hours aerobic growth) of the same molecule?
**A.** reduced Salmonella growth back to media and live cell supernatant controls

**Q.** Which “membrane pannexin-1 channel inhibition” value [4] does the source give for `C[C@H](Cn1cnc2c(N)ncnc21)OCP(=O)(O)O` [Tenofovir] here?
**A.** inhibit membrane pannexin-1 channels

**Q.** With `COc1cccc2c1C(=O)c1c(O)c3c(c(O)c1C2=O)C[C@@](O)(C(=O)CO)C[C@@H]3O[C@H]1C[C@H](N)[C@H](O)[C@H](C)O1` [doxorubicin] as the molecule, how does the “Salmonella outgrowth in supernatants of treated colonic explants” value (Salmonella [1]; 20 μg/ml Doxo ex vivo, 9 hours aerobic growth) read?
**A.** directly enhanced Salmonella outgrowth

**Q.** And the caspase-3 activation (C57BL/6 colonic explants)?
**A.** induced caspase-3 activation

**Q.** And the “direct action on bacterial growth (CFU)” value (Enterobacteriaceae)?
**A.** direct antimicrobial action

**Q.** What about the cecal weight [5, 8] of the same molecule?
**A.** significant reduction in cecal weight

**Q.** What about the colon length [5, 8] of the same molecule?
**A.** shortening of the colon

**Q.** And the “caspase-3 activation in the ilea” value [5, 9]?
**A.** caspase-3 activation in the ilea

**Q.** What about the “damage to ceca and colons” value [5, 9] of the same molecule?
**A.** sufficient to induce damage to the ceca and colons

**Q.** What about the “bacterial burden following infection with Salmonella” value (Salmonella [6]; C57BL/6 mice) of the same molecule?
**A.** staggering increases in bacterial burden

**Q.** What about the “WT Salmonella compared to ΔpflB mutant (competitive index)” value (Salmonella [6]; control mice after doxorubicin treatment) of the same molecule?
**A.** significantly enriched

**Q.** What about the “bacterial burden following infection with E. coli” value (E. coli) of the same molecule?
**A.** staggering increases in bacterial burden

**Q.** And the “endogenous Enterobacteriaceae CFU” value [7]?
**A.** potent expansion of the endogenous Enterobacteriaceae

**Q.** With `N[C@@H]1[C@H]2CN(c3nc4c(cc3F)c(=O)c(C(=O)O)cn4-c3ccc(F)cc3F)C[C@@H]12` [Trovafloxacin] as the molecule, how does the “membrane pannexin-1 channel inhibition” value [4] read?
**A.** membrane pannexin-1 channel inhibitor

**Q.** With `CC(=O)S[C@@H]1CC2=CC(=O)CC[C@]2(C)[C@H]2CC[C@@]3(C)[C@@H](CC[C@@]34CCC(=O)O4)[C@H]12` [spironolactone, Spironolactone] as the molecule, how does the “membrane pannexin-1 channel inhibition” value [4] read?
**A.** membrane pannexin-I channel inhibitor

**Q.** With `CCCN(CCC)S(=O)(=O)c1ccc(C(=O)O)cc1` [Probenecid] as the molecule, how does the “membrane pannexin-1 channel inhibition” value [4] read?
**A.** membrane pannexin-1 channel inhibitor
